Measurements: paper PMC4510645, “Discovery of intramolecular trans-sialidases in human gut microbiota suggests novel mechanisms of mucosal adaptation” (Nature Communications, 2015)
Several values for one entry are separate records, joined by “and”; a condition that tells them apart may be missing. Identical values can stand only once. Like-named read-outs stand apart in the source and are kept apart here.

Assays:
[1] = test system: AkmNan0625 and AkmNan1835; assay: Specificity against sialyl-oligosaccharides, HPAEC-PAD (control sialidases); type: biochemical, Akkermansia muciniphila; set-up: key to Activity AkmNan0625 and AkmNan1835: +: Activity was defined as disappearance of the substrate peak and appearance of a lower-molecular weight peak, which could correspond to the desialylated substrate; conditions: substrate 1 mM, 1 nM enzyme, 37 °C, pH 6.5, overnight
Procedure: (§1) Figure 2 Specificity of RgNanH towards sialylated oligosaccharides. The enzymes were incubated with sialylated substrates at 37 °C, pH 6.5, overnight and the reaction products were analysed by HPAEC-PAD. Control reactions without enzyme were also performed. The injection peak is marked (inj). Glycerol (gly) was also present in AkmNan0625. (a) Standards (Lac, Neu5Ac, 3′SL and 6′SL), (b) 3′SL, (c) 6′SL and (d) 3'-α-sialyl-N-acetyllactosamine (3′SLacNAc). AkmNan1835 has a similar profile to […].
All chemicals were obtained from Sigma (St Louis, USA) unless otherwise stated. The A. muciniphila sialidases, termed here AkmNan0625 and AkmNan1835, were obtained by His-Tag overexpression of their genes (Amuc_0625 and Amuc_1835, respectively)[56] in E. coli BL21(DE3) and subsequent purification to homogeneity by immobilized metal affinity chromatography as described below. The sialylated oligosaccharides and OC were obtained from Carbosynth (Berks, UK).
(§2) The purified enzymes were incubated with the substrate in buffer made from 20 mM Na2HPO4 and 20 mM NaH2PO4 adjusted to pH 6.5 containing 1 mg ml^−1 BSA at 37 °C unless otherwise stated. For 4MU-Neu5Ac, the progression of the reaction was monitored by the release of the MU using a 96-well plate reader (BMG Labtech, Ortenberg, Germany) using fluorescence with an excitation at 340 nm and an emission at 420 nm. For determining the optimal temperature, the assay was carried out in 20 mM PBS at pH 7.4. For determining the optimal pH, the assay was carried out at 37 °C using buffer made from 20 mM Na2HPO4 and 20 mM NaH2PO4 in varying proportions to obtain the desired pH. PNP release from PNP-Neu5Ac was monitored in a similar way measuring absorbance at 405 nm every 60 s. For 3′SL, the reaction was monitored by HPAEC-PAD. An aliquot of the reaction was removed from the main reaction volume at the reaction stopped by boiling for 20 min, the enzyme was then removed by centrifugation at 17,000g for 10 min and filtration with a 0.2-μm filter (Millipore, Billerica, USA). The sugars were separated by HPAEC with an isocratic gradient of 100 mM NaOH and 100 mM NaAC at 1 ml min^−1 on a CarboPac PA1 protected with a guard column and detected using PAD on a Dionex ICS5000 system (Thermo Scientific, Hemel Hempstead, UK). The column was cleaned with 10 ml of 500 mM NaOH and 500 mM NaAc, and the column was re-equilibrated with 100 mM NaOH and 100 mM NaAc. An internal standard of fucose was used to quantify the results.
(§3) For specificity tests against sialylated oligosaccharides (1 mM) and glycoproteins (1 mg ml^−1), 1 nM of enzyme was incubated with the substrate at 37 °C, pH 6.5, overnight.

RgNanH [2] = target: T1, RgNanH (Mediterraneibacter gnavus (Ruminococcus gnavus), UniProt A7B557); assay: Specificity against sialyl-oligosaccharides, HPAEC-PAD; type: biochemical, Ruminococcus gnavus ATCC 29149; set-up: key to Activity RgNanH: +: Activity was defined as disappearance of the substrate peak and appearance of a lower-molecular weight peak, which could correspond to the desialylated substrate; conditions: substrate 1 mM, 1 nM enzyme, 37 °C, pH 6.5, overnight
T1 sequence (A7B557 26-723): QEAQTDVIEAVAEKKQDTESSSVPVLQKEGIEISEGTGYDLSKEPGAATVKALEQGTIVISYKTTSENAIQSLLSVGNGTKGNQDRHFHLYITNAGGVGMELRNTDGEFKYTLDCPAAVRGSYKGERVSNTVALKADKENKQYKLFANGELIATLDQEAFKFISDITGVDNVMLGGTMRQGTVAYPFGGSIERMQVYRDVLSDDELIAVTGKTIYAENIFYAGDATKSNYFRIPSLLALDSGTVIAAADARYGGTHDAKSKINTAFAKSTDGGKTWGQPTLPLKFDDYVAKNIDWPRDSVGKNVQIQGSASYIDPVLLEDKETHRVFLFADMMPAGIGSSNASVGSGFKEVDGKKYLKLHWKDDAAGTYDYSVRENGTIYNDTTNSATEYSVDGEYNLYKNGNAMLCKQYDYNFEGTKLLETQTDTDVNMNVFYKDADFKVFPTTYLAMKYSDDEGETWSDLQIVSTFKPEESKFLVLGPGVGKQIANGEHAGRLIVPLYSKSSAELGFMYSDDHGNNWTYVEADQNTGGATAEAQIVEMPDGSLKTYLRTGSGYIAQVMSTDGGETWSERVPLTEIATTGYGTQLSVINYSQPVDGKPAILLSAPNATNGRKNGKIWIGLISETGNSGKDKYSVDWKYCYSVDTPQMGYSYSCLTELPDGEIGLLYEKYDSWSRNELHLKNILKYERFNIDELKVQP
Procedure: as §1, §2, §3

RgNanH [3] = target: T1, RgNanH; assay: Inhibition of RgNanH activity against 4MU-Neu5Ac by neuraminidase inhibitors; type: biochemical, Ruminococcus gnavus ATCC 29149; conditions: for LogIC50 / IC50: 4MU-Neu5Ac 0.51 mM, pre-incubated 15 min at 37 °C, pH 6.5
Procedure: Figure 1 Kinetic analysis of the hydrolysis of sialylated substrates by RgNanH in presence or absence of inhibitors. Substrate (a) 4MU-Neu5Ac or (b) PNP-Neu5Ac was incubated with RgNanH ([…] and 0.43 nM, respectively) at 37 °C, pH 6.5 and the release of product measured using a plate reader. (c) Inhibition of RgNanH (1.00 nM) incubated with 4MU-Neu5Ac (0.51 mM) by zanamivir (●), Neu5Ac2en (▪), siastatin B (▴) and OC (♦), the rates are normalized to a % of the uninhibited rate. [I] is the inhibitor concentration. (d) 3′SL was incubated with RgNanH (2.25 nM) and the release of product measured by HPAEC-PAD. Experiments were done at least in duplicate (usually triplicate) and the error bars show the s.e.m.
as §2, with “results. […]” for “results.”

RgNanH [4] = target: T1, RgNanH; assay: Kinetic parameters of RgNanH with sialylated substrates; type: biochemical, Ruminococcus gnavus ATCC 29149; conditions: pH 6.5, 37 °C
Procedure: as §2
For 4MU-Neu5Ac and 3′SL, the rate of hydrolysis without enzyme was not significant, thus raw data were used. However, for pNP-Neu5Ac, the rate of hydrolysis without enzyme was significant, thus the rate with enzyme was corrected by the subtraction of the rate without enzyme at each concentration of substrate. For 3′SL, the rate of reaction was calculated by plotting the amount of substrate remaining over the course of >50 % of the reaction using the following equation[58]: […]
Where k is kcat/KM × enzyme concentration, t is time, [S0] and [St] are substrate concentrations at time 0 and t, respectively.
Kinetic data were obtained from at least duplicate (usually triplicate) experiments, and the kinetic parameters were calculated by fitting the initial raw data to the Michaelis–Menten equation using a nonlinear regression analysis programme (Prism 6, GraphPad, San Diego, USA), and error bars (s.e.m.) are shown.

In the case of CC(=O)N[C@H]1[C@H]([C@H](O)[C@H](O)CO)O[C@@](O[C@H]2[C@@H](O)[C@@H](CO)O[C@@H](O[C@H]3[C@H](O[C@@H]4O[C@@H](C)[C@@H](O)[C@@H](O)[C@@H]4O)[C@@H](NC(C)=O)C(O)O[C@@H]3CO)[C@@H]2O)(C(=O)O)C[C@@H]1O (stereo partly drawn) [3′-Sialyl Lewis X, Neu5Ac-α-2-3-Gal-β-1-4-[Fuc-a-1-3]-GlcNAc], the “Activity AkmNan0625 and AkmNan1835” value [1] is reported as “+” and the “Activity RgNanH” value (RgNanH [2]) is reported as “+”.
With CC(=O)N[C@H]1[C@H]([C@H](O)[C@H](O)CO)OC(C(=O)O)=C[C@@H]1O [Neu5Ac2en, 2-deoxy-2,3-didehydro-D-N-acetylneuraminic acid] the LogIC50 (RgNanH [3]; RgNanH 1.00 nM) was 0.15±0.04 and the IC50 (RgNanH [3]; RgNanH 1.00 nM, read-out: IC50) was 1400 µM and 1410 µM.
With “Neu5Ac-α-2-3-Gal-β-1-4-GlcNAc [3′-α-Sialyl-N-acetyllactosamine]” the “Activity AkmNan0625 and AkmNan1835” value [1] was “+” and the “Activity RgNanH” value (RgNanH [2]) was “+”.
CC(=O)N[C@H]1[C@H]([C@H](O)[C@H](O)CO)O[C@@](Oc2ccc([N+](=O)[O-])cc2)(C(=O)O)C[C@@H]1O [PNP-Neu5Ac, 2-O-(p-nitrophenyl)-α-D-N-acetylneuraminic acid] was tested, and the kcat (RgNanH [4]; substrate of RgNanH) was <152 ^* min^−1 and the Km (RgNanH [4]; substrate of RgNanH, s.e.m.) was over 25000 µM.
In the case of CC(=O)N[C@H]1[C@H]([C@H](O)[C@H](O)CO)O[C@@](O[C@H]2[C@@H](O)[C@@H](CO)O[C@@H](O[C@H]3[C@H](O[C@@H]4O[C@@H](C)[C@@H](O)[C@@H](O)[C@@H]4O)[C@@H](O)C(O)O[C@@H]3CO)[C@@H]2O)(C(=O)O)C[C@@H]1O (stereo partly drawn) [3′-Sialyl-3-fucosyllactose, Neu5Ac-α-2-3-Gal-β1-4-[Fuc-α-1-3]-Glc], the “Activity AkmNan0625 and AkmNan1835” value [1] is reported as “+” and the “Activity RgNanH” value (RgNanH [2]) is reported as “+”.
In the case of “Neu5Ac-α-2-6-Gal-β-1-4-GlcNAc [6′-α-Sialyl-N-acetyllactosamine]”, the “Activity AkmNan0625 and AkmNan1835” value [1] is reported as “+”.
In the case of CC(=O)N[C@H]1[C@H]([C@H](O)[C@H](O)CO)OC(C(=O)O)=C[C@@H]1N=C(N)N [Zanamivir, 4-guanidino-Neu5Ac2en], the IC50 (RgNanH [3]; IC50, RgNanH 1.00 nM) is reported as about 12000 µM, the LogIC50 (RgNanH [3]; RgNanH 1.00 nM) is reported as 1.08±0.07 and the IC50 (RgNanH [3]; RgNanH 1.00 nM, read-out: IC50) is reported as 11900 µM.
In the case of CC(=O)N[C@@H]1[C@@H](O)C[C@](Oc2ccc3c(C)cc(=O)oc3c2)(C(=O)O)O[C@H]1C(O)[C@H](O)CO (stereo partly drawn) [4MU-Neu5Ac, 2′-(4-methylumbelliferyl)-α-D-N-acetylneuraminic acid], the Ki (RgNanH [4]; substrate inhibition, s.e.m.) is reported as 2370 ± 650 µM, the kcat (RgNanH [4]; substrate of RgNanH) is reported as 6210 min⁻¹ and the Km (RgNanH [4]; substrate of RgNanH, s.e.m.) is reported as 590 ± 170 µM. The Vmax (RgNanH [4]; substrate of RgNanH, s.e.m.) was 1.37 ± 0.23 µM/min.
For CCC(CC)O[C@@H]1C=C(C(=O)O)C[C@H](N)[C@H]1NC(C)=O [Oseltamivir carboxylate], the LogIC50 (RgNanH [3]; RgNanH 1.00 nM) was −1.53±0.02, the IC50 (RgNanH [3]; RgNanH 1.00 nM, read-out: IC50) was 29.6 µM and the “improvement in inhibition of RgNanH” value (RgNanH [3]; compared with Neu5Ac2en (IC50: 1.4 mM to 30 μM)) was about 50 fold.
For CC(=O)NC1C(O)CC(OC2C(O)C(O)OC(CO)C2O)(C(=O)O)OC1C(O)C(O)CO (stereo not drawn) [3′-Sialylgalactose, Neu5Ac-α-2-3-Gal], the “Activity AkmNan0625 and AkmNan1835” value [1] was “+” and the “Activity RgNanH” value (RgNanH [2]) was “+”.
CO[C@@H]1O[C@H](CO)[C@@H](O[C@@H]2O[C@H](CO)[C@H](O)[C@H](O[C@]3(C(=O)O)C[C@H](O)[C@@H](NC(C)=O)[C@H]([C@H](O)[C@H](O)CO)O3)[C@H]2O)[C@H](O[C@@H]2O[C@@H](C)[C@@H](O)[C@@H](O)[C@@H]2O)[C@H]1NC(C)=O [3′-Sialyl Lewis X methyl glycoside, Neu5Ac-α-2-3-Gal-β-1-4-[Fuc-a-1-3]-GlcNAc-β-OMe] was tested, and the “Activity AkmNan0625 and AkmNan1835” value [1] was “+” and the “Activity RgNanH” value (RgNanH [2]) was “+”.
For CC(=O)N[C@H]1NC[C@H](C(=O)O)[C@H](O)[C@@H]1O [Siastatin B], the LogIC50 (RgNanH [3]; RgNanH 1.00 nM) was −2.31±0.02 and the IC50 (RgNanH [3]; RgNanH 1.00 nM, read-out: IC50) was 4.87 µM.
With CC(=O)N[C@H]1[C@H]([C@H](O)[C@H](O)CO)OC(OC[C@H]2OC(O)[C@H](O)[C@@H](O)[C@H]2O)(C(=O)O)C[C@@H]1O (stereo partly drawn) [6′-Sialylgalactose, Neu5Ac-α-2-6-Gal] the “Activity AkmNan0625 and AkmNan1835” value [1] was “+”.
